The structures appear in SMILES notation. Some results are limits rather than exact numbers.

Results on twelve molecules are retold here after ChEMBL document CHEMBL1132363, “Asymmetric synthesis and antiviral activities of L-carbocyclic 2', 3'-didehydro-2',3'-dideoxy and 2',3'-dideoxy nucleosides” (J Med Chem, 1999).

The species entered for assay [1] is Homo sapiens. Kind of assay: The compound was tested in vitro for the anti-HBV activity against 2.2.15 cells. Particulars: HepG2 2.2.15. It is filed as functional, cell-based.
A short description of assay [2]: The compound was tested for the cytotoxicity against peripheral blood mononuclear (PBM)cells. Particulars: Homo sapiens. It is filed as functional, cell-based.
The nature of assay [3]: The compound was tested in vitro for the anti-HIV activity against peripheral blood mononuclear (PBM)cells. It counts as functional. Conditions: Homo sapiens.
Assay [4] relates to Vero. Kind of assay: The compound was tested for the cytotoxicity against Vero cells. Conditions: Chlorocebus sabaeus. It is filed as functional, cell-based.
The test system of assay [5] is CCRF-CEM. The assay is described as follows: The compound was tested for the cytotoxicity against CEM cells. It is filed as functional, cell-based. Conditions: Homo sapiens.
Assay [6] is filed under the species Homo sapiens. The assay is described as follows: The compound was tested in vitro for the anti-HBV activity in 2.2.15 cells. It counts as functional, cell-based. Conditions: HepG2 2.2.15.
The nature of assay [7]: The compound was tested for the cytotoxicity against peripheral blood mononuclear (PBM) cells. It counts as functional, cell-based. Conditions: Homo sapiens.
Assay [8] in a line: The compound was tested in vitro for the anti-HIV activity in peripheral blood mononuclear (PBM) cells. It is filed as functional. Particulars: Homo sapiens.

Turning to `OC[C@H]1C=C[C@@H](n2cnc3c(O)ncnc32)C1`, the results for the EC50 in assay [1] and in assay [3] were over 10 µM and over 100 µM, respectively. Moreover, the IC50 in assay [2], in assay [4] and in assay [5] was over 100 µM each time.
With `O=c1ccn(C2CCC(CO)C2)c(=O)[nH]1` (stereo not drawn), the figures for the EC50 in assay [1] and in assay [3] were over 10 µM and over 100 µM, respectively. Moreover, the IC50 in assay [2], in assay [4] and in assay [5] was over 100 µM throughout.
For the molecule `O=c1ccn([C@@H]2C=C[C@H](CO)C2)c(=O)[nH]1`, the EC50 in assay [1] is over 10 µM; in assay [3], over 100 µM. The IC50 in assay [2], in assay [4] and in assay [5] was over 100 µM each time.
For the molecule `OC[C@H]1C=C[C@@H](n2cnc3c(S)ncnc32)C1`, the EC50 in assay [6] is over 10 µM; in assay [8] it was over 100 µM. For the same molecule, the IC50 in assay [7], in assay [4] and in assay [5] was over 100 µM in each case.
As to `COC1O[C@H]2[C@H](COC(C)(C)C)C[C@H](n3cnc4c(Cl)ncnc43)[C@H]2O1` (stereo partly drawn), the EC50 is over 10 µM in assay [1] and over 100 µM in assay [3]. In addition, the IC50 in assay [2], in assay [4] and in assay [5] was over 100 µM throughout.
For the molecule `OC[C@H]1CC[C@@H](n2cnc3c(O)ncnc32)C1`, the EC50 is over 10 µM in assay [6] and over 100 µM in assay [8]. The IC50 in assay [2], in assay [4] and in assay [5] was over 100 µM throughout.
`Cc1cn([C@@H]2C=C[C@H](CO)C2)c(=O)[nH]c1=O`: the EC50 in assay [1] is over 10 µM; in assay [3], over 100 µM. Besides, the IC50 in assay [2] is 66.6 µM; in assay [4], 49.4 µM; in assay [5], over 100 µM.
For `Cc1cn(C2CCC(CO)C2)c(=O)[nH]c1=O` (stereo not drawn), the EC50 in assay [1] is over 10 µM; in assay [3], over 100 µM. Further, the IC50 in assay [2] was over 100 µM; in assay [4], 171 µM; in assay [5], over 100 µM.
Consider `Nc1ccn([C@@H]2C=C[C@H](CO)C2)c(=O)n1`, for which the half-maximal effective concentration (EC50) is over 10 µM in assay [1] and 38.8 µM in assay [3]. For the same molecule, the IC50 in assay [2], in assay [4] and in assay [5] was over 100 µM in each case. In assay [3], this molecule showed an EC90 of 65.9 µM.
For the molecule `Nc1nc(O)c2ncn([C@@H]3C=C[C@H](CO)C3)c2n1`, the EC50 in assay [1] and in assay [3] was over 200 µM in each case.
As to `Nc1ncnc2c1ncn2C1CCC(CO)C1` (stereo not drawn), the results for the EC50 in assay [1] and in assay [3] were over 50 µM and 27 µM, respectively. The IC50 in assay [2], in assay [4] and in assay [5] was over 100 µM throughout.
Turning to `Nc1ncnc2c1ncn2[C@@H]1C=C[C@H](CO)C1`, the EC50 was 0.9 µM in assay [1] and 2.4 µM in assay [3]. In addition, the IC50 in assay [2], in assay [4] and in assay [5] was over 100 µM throughout.

The EC50 is the concentration that produces a half-maximal response. A low value points to an effect from little substance. A word on the IC50: it is the concentration at which inhibition is half-maximal. A higher IC50 goes with a need for much substance. As usually defined, the EC90 is the point of the concentration-response curve where the effect stands at 90%. Read a high EC90 as weaker potency.
